A value given as a limit tells only on which side of the number the result lay.

These results are taken from a melting point compilation (Tetko et al.; mined from patent text by program, amines drawn as free bases though some values may be those of a salt).

As a reminder, the melting point is the temperature of the solid-liquid transition. In turn, `CCCCC(CC)COc1cccc2c1C(=O)c1cccc(OCC(CC)CCCC)c1C2=O` (stereo not given) registered a melting point of 105 °C.

`CSCC[C@H](N)C(=O)NC(=O)C(CS)Cc1ccccc1` (stereo not given in full) gave a melting point of 153 to 156 °C.

For `O=C(NCc1c[nH]c(-c2cc3nc(C(=O)O)c(=O)[nH]c3cc2[N+](=O)[O-])n1)Nc1ccccc1F`, the melting point came out at 300 °C.

`O=C(O)CCCN1C(=O)c2ccc(C(=O)O)cc2C1=O` had a melting point of 218 to 220 °C.

On to `CC1CCN(c2ccc([N+](=O)[O-])cc2C(=O)c2ccccc2)CC1`, for which the melting point is 81 °C.

On to `Nc1nc(Cl)cc(Oc2ccc3c(C(=O)Nc4cccc(C(F)(F)F)c4)cccc3c2)n1`, for which the melting point is 234 to 236 °C.

Take `COCN(c1cccc2cc(-c3nc[nH]n3)n(COC)c12)S(=O)(=O)c1cccs1`: the melting point was in the range of 97 to 99 °C.

As to `CN1CC(=O)Nc2ncccc2C1=O`, the melting point fell in the range of 245 to 247 °C.

`Cc1cc(C)c(N(C)C(=O)CN2C(=O)c3ccccc3C2=O)c(C)c1CO` registered a melting point of 254 to 256 °C.

`CC(C)(C#N)c1cc(C#N)cc(Cn2ccnc2)c1` yielded a melting point of 89 to 92 °C.

For `Cc1cccc(NC(=O)NCC(=O)N(CC(=O)N2CCSC(C)(C)C2)c2ccccc2)c1`, the melting point came out at 186 °C.

`Cn1cc(C(N)=O)c(=O)c2ccc(Cl)cc21`: the melting point was more than 240 °C.

For the compound `CSc1cc(C(C)C)c(NC(=O)C2c3ccccc3COc3ccc(Br)cc32)c(C(C)C)c1` (stereo not given), the melting point lay in the range of 171 to 172 °C.

The compound `CCn1c(C)c(C(C)=O)c(N)c1-c1ccccc1` showed a melting point of 107 to 108 °C.

`COc1ccc(-c2nc(Sc3nc(-c4ccc(OC)cc4)c(-c4ccc(OC)cc4)[nH]3)[nH]c2-c2ccc(OC)cc2)cc1` showed a melting point of 244 to 245 °C.

As to `CC(=O)OCC1OC(n2cc(C)c(=O)[nH]c2=O)CC1N=[N+]=[N-]` (stereo not given), the melting point lay within 96 to 98 °C.

With `Brc1ccc2c(ccn2Cc2ccccc2)c1`, the melting point amounted to 90 °C.

In turn, `CC(CC(C)C1CCC2C3C(=O)CC4CC(=O)CCC4(C)C3CCC12C)C(=O)O` (stereo not given) showed a melting point of 119 °C.

Turning to `Cc1nccn1C(=O)c1ccccc1`, the melting point was 143 to 144 °C.

Turning to `Fc1cc(F)c(-c2c(Cl)nc3ncnn3c2Cl)c(F)c1`, the melting point was in the range of 125 to 126 °C.

Consider `O=C(c1ccc(O)c(Cc2ccc(=O)[nH]n2)c1)c1c(Cl)cc(Cl)cc1Cl`, for which the melting point was determined as 258 °C.

`CCn1c(N)c(-c2ncc[nH]2)c(=O)c2ccc(-c3ccc(C(C)C(=O)NCc4ccncc4)cc3)nc21` (stereo not given) displayed a melting point of 186 °C.

For `COc1ccc2[nH]c(/C=C/C(=O)OCc3ccccc3)cc2c1`, the melting point lay in the range of 155 to 157 °C.

The compound `CCCCCCCCCCC[C@H](CC(=O)N[C@H](CO)C(=O)OCc1ccccc1)OC(=O)CCCCCCCCC` displayed a melting point of 51 to 52 °C.

`CC(=O)n1cccc(O)c1=O` displayed a melting point of 140 to 141 °C.

`CC1(CCCN)NC(=O)NC1=O` (stereo not given) had a melting point of 183 to 185 °C.

Take `Nc1nc(N)nc(-c2cccc(-n3cccc3)c2)n1`: the melting point was in the range of 164 to 170 °C.

On to `CN(C)c1cc(=S)ss1`, for which the melting point stood at 193 °C.

In turn, `O=C(Nc1ccc(F)cc1)N(CCO)CCCCO` yielded a melting point of 62 to 64 °C.

For the compound `COC(=O)c1ccc(CNC(C)=O)cc1S(=O)(=O)NC(=O)Nc1nc(OC)cc(OC)n1`, the melting point lay in the range of 149 to 150 °C.

For `CCCC(=O)c1cnc2c(OCCCN3CCCCC3)cccc2c1Nc1ccccc1C`, the melting point was in the range of 76 to 78 °C.

Consider `CC1=C(c2ccccc2)n2nc(C)c3c(=O)[nH]c(=S)n(c32)C1`, for which the melting point lay in the range of 255 to 257 °C.

For `O=Cc1c[nH]c2c1ccc1c3cc(-c4ccc(F)cc4)ccc3[nH]c12`, the melting point was more than 250 °C.

As for `NC(=O)Cc1c[nH]c2ncccc12`, the melting point is 180 to 181 °C.

Consider `CCN(CC)CC1CCCCN1CC(=O)N1c2ccccc2NC(=O)c2c1c(C)cn2C` (stereo not given), for which the melting point is 176 to 178 °C.

The compound `CC(C)c1nc2cc(COc3ccc(C=O)cc3)ccc2o1` returned a melting point of 86 to 88 °C.

`CCc1nn(CC(=N)NO)c(CC)c1Oc1cc(Cl)cc(Cl)c1` showed a melting point of 128 to 130 °C.

Compound `C=CC(C)=CC(=CC)NCc1ccc2nc(NC3CCN(C)CC3)n(Cc3nc(C)ccc3O)c2c1` displayed a melting point of 141 °C.

The compound `Cc1noc(C(=O)NCCc2ccc(S(N)(=O)=O)cc2)n1` registered a melting point of 218 to 220 °C.

In the case of `CCOP(=O)(Cc1ccc(NC(=O)CCCc2cnoc2-c2ccccc2)cc1)OCC`, the melting point was 128 to 129 °C.

Compound `O=c1c(-c2cccc(F)c2)coc2c(O)c(O)ccc12` gave a melting point of 230 °C.

In turn, `CCP(=S)(CC)OC(=O)/C=N\OCc1csc(N)n1` came in with a melting point of 87 to 88 °C.

For `O=C(CCCO)NCC1c2ccccc2CCc2ccccc21`, the melting point is 98 to 99 °C.

`CCOc1cc(-c2cc(C(F)F)n3ncc(C(=O)Nc4cccc(S(C)(=O)=O)c4)c3n2)ccc1C(F)(F)F`: the melting point was 211 °C.

The compound `CC(=O)Nc1ccccc1SCc1ncon1` registered a melting point of 89 °C.

Turning to `CN(C)c1ccc(/C=C/c2c(F)cccc2F)cc1`, the melting point was in the range of 112 to 113 °C.

`Cc1[nH]c2ccc(OCCN3CCCC3c3cccnc3)cc2c1C(=O)OCc1ccccc1` (stereo not given) displayed a melting point of 126 to 127 °C.

Turning to `COc1cc2nc(-c3ccccn3)nc(N)c2cc1OC`, the melting point was 248 to 251 °C.

For `COC(=O)c1cccc([N+](=O)[O-])c1C(=O)O`, the melting point is 166 to 168 °C.

`CCn1c(-c2ccccc2)c(C2=CCC(C(=O)O)(C(=O)O)CC2)c2ccccc21` had a melting point of 111 to 112 °C.

Take `CC(Cc1nc(-c2ccccc2)nc2ccccc12)C(=O)N(C)C(C)C` (stereo not given): the melting point came to 171 °C.

Turning to `CCOc1cc2c(cc1OC(C)=O)C(=O)CC1C2CCC2(C)C(OC(C)=O)CCC12` (stereo not given), the melting point was 195 °C.

Turning to `COc1ccc(C2C(=O)c3ccc(OC)cc3C2=O)cc1` (stereo not given), the melting point was 163 °C.

As for `O=C(O)C1(Cn2cnnn2)CCCC1`, the melting point is 192 to 196 °C.

`CC(=O)NC(C)COC1CCC(c2nc3ccc(OCC4CC4)cc3o2)CC1` (stereo not given) gave a melting point of 131 to 132 °C.

In the case of `CON(C)C(=O)c1cc(O)cc2cc(-c3ccc(O)cc3)oc12`, the melting point is 125 to 127 °C.

As for `CCC1(c2ccccc2)OC(c2ccc(-c3ccc(Cl)cc3)cc2)OC1=O` (stereo not given), the melting point is 80 to 83 °C.

`C=CCOC(=O)N1CCCC(OC)C1CC(=O)Cn1cnc2cc(Br)c(Cl)cc2c1=O` (stereo not given) returned a melting point of 112 °C.

In turn, `COCCNc1nc(-n2ccnc2)nc2ccc(CO)cc12` returned a melting point of 165 to 168 °C.

As for `CN1CCC[C@H]1Cn1nc(-c2c(-c3ccccc3)nn3ccccc23)ccc1=O`, the melting point was in the range of 114 to 117 °C.

Compound `N#Cc1ccc(N)cc1Sc1ccccc1` yielded a melting point of 69 to 71 °C.

The compound `COc1cc2sc(C(N)=O)cc2c(Cl)c1OC` returned a melting point of 180 to 182 °C.

With `CC(=O)N[C@@H](CSC(c1ccccc1)(c1ccccc1)c1ccccc1)C(=O)NCCSC(=O)C(C)(C)C`, the melting point was in the range of 212 to 213 °C.

Compound `COc1cc(OC)nc(NC(=O)NS(=O)(=O)c2ccccc2C(=O)O)n1` showed a melting point of 155 to 157 °C.

`CON=C(OC)C(=O)c1nccn1Cc1ccccc1` displayed a melting point of 55 to 58 °C.

On to `CCCCOc1ccc(-c2ccc3c(c2)C=C(C(=O)O)CCS3(=O)=O)cc1`, for which the melting point was in the range of 244 to 247 °C.

`COc1cc2c(c(Cl)c1Cl)C(=O)C(CCCl)C2` (stereo not given) yielded a melting point of 103 to 105 °C.

Turning to `COc1cc(OCc2cccnc2)ccc1/C=C/c1cc(/C=C/c2cccc3cc[nH]c23)n[nH]1`, the melting point is 122 to 129 °C.

As to `CC1(C)CCC(C)(C)c2cc(C#Cc3ccc(-c4nnn[nH]4)cc3)ccc21`, the melting point was 227 to 228 °C.

`CCOc1cc2c(cc1OCC)-c1c(C#N)sc(=O)n1CC2` gave a melting point of 172 to 174 °C.

`CCC(C)n1cc(Cl)nc(N2CCc3cc(OC)cc(Cl)c32)c1=O` (stereo not given): the melting point fell in the range of 143 to 145 °C.

Turning to `CC(C)(CO)OCc1nn(Cc2ccccc2)c2ccccc12`, the melting point lay in the range of 52 to 53 °C.

Compound `CCOC(=O)COc1cc(F)c(-c2ncnc(C(F)(F)F)c2Cl)cc1[N+](=O)[O-]` came in with a melting point of 127 to 129 °C.

With `Cn1ccc(-c2[nH]nc3c2C(=O)c2c(NC(=O)NN4CCOCC4)cccc2-3)c1`, the melting point amounted to 301 °C.

Consider `O=C(OCc1ccccc1)N1CCN(C(=O)C(Cc2ccc(O)cc2)NS(=O)(=O)c2cccc3cnccc23)CC1` (stereo not given), for which the melting point lay within 137 to 141 °C.

For `COc1ccc(N2CN(C)CNC2=S)cc1`, the melting point was determined as 194 °C.

Compound `CCOC(=O)C(=Cc1ccc(NC)cc1[N+](=O)[O-])C(=O)OCC` returned a melting point of 113 to 114 °C.

As for `Cc1ccc(CC2(O)CCN(C(C)C(=O)Nc3ccc(O[Si](C)(C)C(C)(C)C)cc3)CC2)cc1` (racemic), the melting point lay within 134 to 138 °C.

For `C=CCN(CC=C)CC(=O)N1c2ccccc2N(CCCC)C(=O)c2cnc(-c3ccccc3)nc21`, the melting point lay within 137 to 138 °C.

Regarding `CCCCCCCCCCCCCCCCCCOC[C@@H](O)COC(=O)CCCCl`, the melting point amounted to 48 °C.

`O=S1(=O)CCCSC(Cl)=N1`: the melting point turned out to be 156 °C.

With `Cc1c(OCC(O)CN2CCOCC2)noc1-c1ccccc1` (stereo not given), the melting point is 94 to 95 °C.

With `CC(C)(C)C1(O)OC(=O)c2ccc(Cl)cc21` (stereo not given), the melting point fell in the range of 160 to 161 °C.

`Cc1c2c(cc3ccc(=O)oc13)C=CC(C)(C)O2` displayed a melting point of 105 to 107 °C.

For the compound `Oc1cc(Cl)c(Br)c(Cl)c1`, the melting point lay in the range of 118 to 120 °C.

Compound `Cc1n[nH]c2c1C(=O)CC(c1ccccc1O)C2` (stereo not given) had a melting point of 252 to 255 °C.

Take `O=C(/C=C/c1cccc(-c2cccc([N+](=O)[O-])c2)c1)Nc1ccc(CN2CCCCC2)cc1`: the melting point was 178 to 179 °C.

Take `CC(C)=COc1ccc2c(C)cc(=O)oc2c1C(=O)C=Cc1cccnc1`: the melting point was in the range of 156 to 157 °C.

The compound `CCOc1ccc(-c2nc(-c3cccc(C(C#N)C(=O)OC)n3)cs2)cc1OCC` (stereo not given) had a melting point of 240 to 242 °C.

The compound `CCn1nc(-c2ccccc2)c(C(C)=O)c(Nc2ccc([N+](=O)[O-])cn2)c1=O` registered a melting point of 200 to 201 °C.
